Activity calls are given as the source filed them. The rule behind the calls is not given here.
How the values were obtained:
P388 [1] = test: Antileukemic activity against mouse P388 cells allografted in mouse at 12.5 mg/kg administered daily as single dose relative to control; type: functional
P388 [2] = test: Antileukemic activity against mouse P388 cells allografted in mouse assessed as host survival at 12.5 mg/kg administered daily as single dose; type: functional, organism-based; parameters: dose 12.5 mg/kg
P388 [3] = test: Antileukemic activity against mouse P388 cells allografted in mouse at 50 mg/kg administered daily as single dose relative to control; type: functional
P388 [4] = test: Antileukemic activity against mouse P388 cells allografted in mouse at 25 mg/kg administered daily as single dose relative to control; type: functional
P388 [5] = test: Antileukemic activity against mouse P388 cells allografted in mouse assessed as host survival at 50 mg/kg administered daily as single dose; type: functional, organism-based; parameters: dose 50 mg/kg
P388 [6] = test: Antileukemic activity against mouse P388 cells allografted in mouse assessed as host survival at 25 mg/kg administered daily as single dose; type: functional, organism-based; parameters: dose 25 mg/kg
Mus musculus [7] = test: Toxicity in mouse allografted with mouse P388 cells assessed as change in body weight at 25 mg/kg administered daily as single dose; type: organism-based; parameters: dose 25 mg/kg; conditions: in vivo
Mus musculus [8] = test: Toxicity in mouse allografted with mouse P388 cells assessed as change in body weight at 12.5 mg/kg administered daily as single dose; type: organism-based; parameters: dose 12.5 mg/kg; conditions: in vivo
Mus musculus [9] = test: Toxicity in mouse allografted with mouse P388 cells assessed as change in body weight at 50 mg/kg administered daily as single dose; type: organism-based; parameters: dose 50 mg/kg; conditions: in vivo
P388 [10] = test: Antileukemic activity against mouse P388 cells allografted in mouse at 18.8 mg/kg administered daily as single dose relative to control; type: functional
Mus musculus [11] = test: Toxicity in mouse allografted with mouse P388 cells assessed as change in body weight at 3.13 mg/kg administered daily as single dose; type: organism-based; parameters: dose 3.13 mg/kg; conditions: in vivo
P388 [12] = test: Antileukemic activity against mouse P388 cells allografted in mouse assessed as host survival at 18.8 mg/kg administered daily as single dose; type: functional, organism-based; parameters: dose 18.8 mg/kg
P388 [13] = test: Antileukemic activity against mouse P388 cells allografted in mouse at 6.25 mg/kg administered daily as single dose relative to control; type: functional
Mus musculus [14] = test: Toxicity in mouse allografted with mouse P388 cells assessed as change in body weight at 6.25 mg/kg administered daily as single dose; type: organism-based; parameters: dose 6.25 mg/kg; conditions: in vivo
P388 [15] = test: Antileukemic activity against mouse P388 cells allografted in mouse assessed as host survival at 3.13 mg/kg administered daily as single dose; type: functional, organism-based; parameters: dose 3.13 mg/kg
P388 [16] = test: Antileukemic activity against mouse P388 cells allografted in mouse at 3.13 mg/kg administered daily as single dose relative to control; type: functional
Mus musculus [17] = test: Toxicity in mouse allografted with mouse P388 cells assessed as change in body weight at 18.8 mg/kg administered daily as single dose; type: organism-based; parameters: dose 18.8 mg/kg; conditions: in vivo
P388 [18] = test: Antileukemic activity against mouse P388 cells allografted in mouse assessed as host survival at 6.25 mg/kg administered daily as single dose; type: functional, organism-based; parameters: dose 6.25 mg/kg
Mus musculus [19] = test: Toxicity in mouse allografted with mouse P388 cells assessed as change in body weight at 100 mg/kg administered daily as single dose; type: organism-based; parameters: dose 100 mg/kg; conditions: in vivo
P388 [20] = test: Antileukemic activity against mouse P388 cells allografted in mouse at 100 mg/kg administered daily as single dose relative to control; type: functional

Structure (SMILES): COc1cc2c[n+]3c4c(cccc4c2cc1OC)CCC3.[Cl-]
- T/C (P388 [1]): 109%
- Survival (P388 [2]): Active
- T/C (P388 [3]): 110%
- T/C (P388 [4]): 108%
- Survival (P388 [5]): Active
- Survival (P388 [6]): Active
- Activity (Mus musculus [7]): -0.1 g
- Activity (Mus musculus [8]): -1.4 g
- Activity (Mus musculus [9]): -3.2 g

Structure (SMILES): [Cl-].c1cc2c3c(c1)c1cc4c(cc1c[n+]3CCC2)OCO4
- T/C (P388 [1]): 129%
- Survival (P388 [2]): Active
- T/C (P388 [10]): 132%
- Activity (Mus musculus [11]): -0.2 g
- Survival (P388 [12]): Active
- T/C (P388 [4]): 120%
- Survival (P388 [5]): inactive
- T/C (P388 [13]): 126%
- Activity (Mus musculus [14]): -1.7 g
- Activity (Mus musculus [7]): -3.3 g
- Survival (P388 [15]): Active
- Activity (Mus musculus [8]): -1.9 g
- T/C (P388 [16]): 110%
- Activity (Mus musculus [17]): -2.4 g
- Survival (P388 [18]): Active

Structure (SMILES): COS(=O)(=O)[O-].C[n+]1cc2ccccc2c2ccccc21
- T/C (P388 [1]): 120%
- Survival (P388 [2]): Active
- Activity (Mus musculus [11]): -0.8 g
- T/C (P388 [3]): 113%
- T/C (P388 [4]): 125%
- Survival (P388 [5]): Active
- T/C (P388 [13]): 117%
- Activity (Mus musculus [14]): -1 g
- Survival (P388 [6]): Active
- Activity (Mus musculus [7]): -3.2 g
- Survival (P388 [15]): Active
- Activity (Mus musculus [8]): -2.2 g
- Activity (Mus musculus [9]): -6.4 g
- T/C (P388 [16]): 108%
- Survival (P388 [18]): Active

Structure (SMILES): C[n+]1cc2cc3c(cc2c2ccccc21)OCO3.[Cl-]
- T/C (P388 [1]): 135%
- Survival (P388 [2]): Active
- T/C (P388 [10]): 144%
- Activity (Mus musculus [11]): -0.3 g
- Survival (P388 [12]): Active
- T/C (P388 [4]): 151%
- T/C (P388 [13]): 129%
- Activity (Mus musculus [14]): -0.9 g
- Survival (P388 [6]): Active
- Activity (Mus musculus [7]): -2.5 g
- Survival (P388 [15]): Active
- Activity (Mus musculus [8]): -1 g
- T/C (P388 [16]): 126%
- Activity (Mus musculus [17]): -1.3 g
- Survival (P388 [18]): Active

Structure (SMILES): COc1cc2c[n+](C)c3ccccc3c2cc1OC.[Cl-]
- T/C (P388 [1]): 113%
- Survival (P388 [2]): Active
- T/C (P388 [3]): 130%
- T/C (P388 [4]): 121%
- Survival (P388 [5]): Active
- Activity (Mus musculus [19]): -3.8 g
- Survival (P388 [6]): Active
- Activity (Mus musculus [7]): -1 g
- Activity (Mus musculus [8]): -1.1 g
- Activity (Mus musculus [9]): -1.6 g
- T/C (P388 [20]): 123%

Structure (SMILES): [O-]c1cc2c3c(c1)c1cc4c(cc1c[n+]3CC2)OCO4 [UNGEREMINE]
- T/C (P388 [1]): 148%
- Survival (P388 [2]): Active
- Activity (Mus musculus [11]): -0.7 g
- T/C (P388 [3]): 152%
- T/C (P388 [4]): 148%
- Survival (P388 [5]): Active
- T/C (P388 [13]): 136%
- Activity (Mus musculus [14]): -0.7 g
- Survival (P388 [6]): Active
- Activity (Mus musculus [7]): -2.1 g
- Survival (P388 [15]): Active
- Activity (Mus musculus [8]): -1.9 g
- Activity (Mus musculus [9]): -3.9 g
- T/C (P388 [16]): 133%
- Survival (P388 [18]): Active

Structure (SMILES): Oc1cc2c3c(c1)c1cc4c(cc1c[n+]3CC2)OCO4.[Cl-]
- T/C (P388 [1]): 155%
- Survival (P388 [2]): Active
- Activity (Mus musculus [11]): -0.7 g
- T/C (P388 [4]): 164%
- T/C (P388 [13]): 151%
- Activity (Mus musculus [14]): -1.7 g
- Activity (Mus musculus [7]): -3.9 g
- Survival (P388 [15]): Active
- Activity (Mus musculus [8]): -2.4 g
- T/C (P388 [16]): 133%
- Survival (P388 [18]): Active

Structure (SMILES): [Cl-].c1cc2c3c(c1)c1cc4c(cc1c[n+]3CC2)OCO4 [ANHYDROLYCORINIUM CHLORIDE]
- T/C (P388 [1]): 142%
- Survival (P388 [2]): Active
- T/C (P388 [4]): 153%
- T/C (P388 [13]): 127%
- Activity (Mus musculus [14]): -1.5 g
- Survival (P388 [6]): Active
- Activity (Mus musculus [7]): -2.9 g
- Activity (Mus musculus [8]): -2.1 g
- Survival (P388 [18]): Active

Structure (SMILES): COc1cc2c[n+]3c4c(cccc4c2cc1OC)CC3.[Cl-]
- T/C (P388 [3]): 118%
- T/C (P388 [4]): 108%
- Survival (P388 [5]): Active
- Activity (Mus musculus [19]): -5.1 g
- Survival (P388 [6]): Active
- Activity (Mus musculus [7]): -0.9 g
- Activity (Mus musculus [9]): -1.7 g
- T/C (P388 [20]): 114%

Source: ChEMBL document CHEMBL3243981, “Antileukemic activity of ungeremine and related compounds. Preparation of analogues of ungeremine by a practical photochemical reaction” (J Med Chem, 1978)
